The target of the assay is T1, HDM2 (Homo sapiens, UniProt Q00987).
T1 construct: Thioredoxin (N); made in house; host or cells: E. coli strain BL21(DE3)Rosetta
Kind of assay: HDM2 FRET assay (inhibition of binding of FITC labeled p53-pocket peptide to HDM2). The settings on record: for IC50: read-out: FRET IC50. The method in brief: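 Final: 0.5 nM His-HDM2, 3 nM FITC peptide, 0.25 nM Tb anti-His Ab; PBS, 0.01% BSA, 0.01% Tween-20; 0.1% DMSO.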

[1] abbreviates: 0.5 nM HDM2 (residues 17 to 125), 3nM peptide, two hour incubation at room temperature.

This passage reports IC50 and inhibition results from EP2951180B1, “2,6,7,8 SUBSTITUTED PURINES AS HDM2 INHIBITORS” (Merck Sharp & Dohme Corp., priority 2013, dated 2014).

Read-outs that look alike come from different tables or passages of the source.

T1 sequence (Q00987 17-125): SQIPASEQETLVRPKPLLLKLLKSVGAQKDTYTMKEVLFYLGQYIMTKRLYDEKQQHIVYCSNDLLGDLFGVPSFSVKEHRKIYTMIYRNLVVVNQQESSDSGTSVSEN

The term IC50 denotes the concentration that gives 50% inhibition. With `C[C@@H](Nc1nc(-c2noc(=O)[nH]2)nc2nc(N3CCC(C)(O)C3)n(C[C@H]3CC[C@H](C)CC3)c12)C1CCC1` (stereo partly drawn) [Example 11.113, 3-(6-{[(1R)-1-cyclobutylethyl]amino}-8-(3-hydroxy-3-methylpyrrolidin-1-yl)-7-[(trans-4-methylcyclohexyl)methyl]-7H-purin-2-yl)-1,2,4-oxadiazol-5(2H)-one], the IC50 (Table 11) was determined as 57.7 nM. Consider `C[C@H]1CC[C@H](Cn2c(N3CCOCC3)nc3nc(-c4noc(=O)[nH]4)nc(-c4cccc(Cl)c4)c32)CC1` [Example 16.1, 3-(6-(3-chlorophenyl)-7-(((trans)-4-methylcyclohexyl)methyl)-8-morpholino-7H-purin-2-yl)-1,2,4-oxadiazol-5(4H)-one], for which the IC50 under setting [1] amounted to 71.7 nM. Take `COC1(c2nc3nc(-c4n[nH]c(=O)o4)nc(-c4cncc(Cl)c4)c3n2C[C@H]2CC[C@H](C)CC2)CCCCC1C` (relative stereo) [Example 23.64, 5-{6-(5-chloropyridin-3-yl)-8-(1-methoxy-2-methylcyclohexyl)-7-[(trans-4-methylcyclohexyl)methyl] -7H-purin-2-yl}-1,3,4-oxadiazol-2(3H)-one]: the IC50 (Table 23) was 8.8 nM. For the molecule `C[C@H]1CC[C@H](Cn2c(C3(c4ccccc4)CCC3)nc3nc(-c4n[nH]c(=O)o4)nc(-c4cc(Cl)c[n+]([O-])c4)c32)CC1` [Example 20.13, 5-[6-(5-chloro-1-oxidopyridin-3-yl)-7-[(trans-4-methylcyclohexyl)methyl]-8-(1-phenylcyclobutyl)-7H-purin-2-yl]-1,3,4-oxadiazol-2(3H)-one], the IC50 (Table 20) is 22.8 nM.

As to `C[C@@H](Nc1nc(-c2noc(=O)[nH]2)nc2nc(N(C)Cc3cnccn3)n(C[C@H]3CC[C@H](C)CC3)c12)C1CCC1` [Example 11.72, 3-(6-{[(1R)-1-cyclobutylethyl]amino}-7-[(trans-4-methylcyclohexyl)methyl]-8-[methyl(pyrazin-2-ylmethyl)amino]-7H-purin-2-yl)-1,2,4-oxadiazol-5(2H)-one], where the note is “Table 11”, the IC50 amounted to 5.98 nM. Turning to `C[C@H]1CC[C@H](Cn2c(N3CCOC[C@H]3CF)nc3nc(-c4n[nH]c(=O)o4)nc(-c4cncc(Cl)c4)c32)CC1` [Example 16.139, 5-{6-(5-chloropyridin-3-yl)-8-[(3S)-3-(fluoromethyl)morpholin-4-yl]-7-[(trans-4-methylcyclohexyl)methyl]-7H-purin-2-yl}-1,3,4-oxadiazol-2(3H)-one], the IC50 under setting [1] stood at 37.1 nM. Turning to `CC(C)c1ccnc(-c2nc3nc(C(=O)O)nc(N[C@H](C)C4CCC4)c3n2C[C@H]2CC[C@H](C(F)(F)F)CC2)c1` [Example 18.1, 6-(((R)-1-cyclobutylethyl)amino)-8-(4-isopropylpyridin-2-yl)-7-((trans-4-(trifluoromethyl)cyclohexyl)methyl)-7H-purine-2-carboxylic acid], the IC50 (Table 18) worked out at 3.46 nM. `C[C@@H](Nc1nc(C(=O)O)nc2nc(C3CCCCN3C)n(Cc3ccc(C(F)(F)F)cc3)c12)C1CCC1` (stereo partly drawn) [Example 10.23, 6-(((R)-1-Cyclobutylethyl)amino)-8-(1-methylpiperidin-2-yl)-7-(4-(trifluoromethyl)benzyl)-7H-purine-2-carboxylic acid]: the 50% inhibitory concentration (IC50) (Table 10) was 48 nM.

`C[C@@H](Nc1nc(-c2n[nH]c(=O)o2)nc2nc(N3CCOC4CCCC43)n(C[C@H]3CC[C@H](C)CC3)c12)C1CCC1` (single isomer, unassigned) [Example 11.141]: the IC50 (Table 11) is 0.841 nM. `CC(C)CN(C)c1nc2nc(-c3noc(=O)[nH]3)nc(N[C@H](C)C3CCC3)c2n1Cc1ccc(C(F)(F)F)cc1` [Example 9.81, 3-(6-{[(1R)-1-cyclobutylethyl]amino}-8-[methyl(2-methylpropyl)amino]-7-[4-(trifluoromethyl)benzyl]-7H-purin-2-yl)-1,2,4-oxadiazol-5(4H)-one]: the IC50 (Table 9) stood at 11.6 nM. As to `C[C@@H](Nc1nc(-c2noc(=O)[nH]2)nc2nc(C3OCc4ccccc43)n(C[C@H]3CC[C@H](C)CC3)c12)C1CCC1` (stereo partly drawn) [Example 22.80, 3-(6-{[(1R)-1-cyclobutylethyl]amino}-8-(1,3-dihydro-2-benzofuran-1-yl)-7-[(trans-4-methylcyclohexyl)methyl]-7H-purin-2-yl)-1,2,4-oxadiazol-5(4H)-one], where the note is “Table 22”, the IC50 is 2.47 nM. On to `C[C@@H](Nc1nc(C(=O)O)nc2nc(N3CCc4ccccc4C3)n(C[C@H]3CC[C@H](C)CC3)c12)C1CCC1` [Example 11.17, 6-{[(1R)-1-cyclobutylethyl]amino}-8-(3,4-dihydroisoquinolin-2(1H)-yl)-7-[(trans-4-methylcyclohexyl)methyl]-7H-purine-2-carboxylic acid], for which, under “Table 11”, the IC50 is 17.9 nM. `C[C@H]1CC[C@H](Cn2c(N3CCOC[C@H]3c3ccccn3)nc3nc(-c4noc(=O)[nH]4)nc(-c4cccc(Cl)c4)c32)CC1` [Example 16.98, 3-{6-(3-chlorophenyl)-7-[(trans-4-methylcyclohexyl)methyl]-8-[(3R)-3-pyridin-2-ylmorpholin-4-yl]-7H-purin-2-yl}-1,2,4-oxadiazol-5(4H)-one]: the IC50 under setting [1] amounted to 1.61 nM. Still for that read-out and setting: under `CC[C@@H]1[C@@H](C)OCCN1c1nc2nc(-c3n[nH]c(=O)o3)nc(-c3cncc(Cl)c3)c2n1C[C@H]1CC[C@H](C)CC1` [Example 16.153, 5-{6-(5-chloropyridin-3-yl)-8-[(2R,3R)-3-ethyl-2-methylmorpholin-4-yl]-7-[(trans-4-methylcyclohexyl)methyl]-7H-purin-2-yl}-1,3,4-oxadiazol-2(3H)-one] stands 10 nM; under `Cc1cccc(-c2nc(-c3n[nH]c(=O)o3)nc3nc(N4CCOC[C@@H]4C)n(C[C@H]4CC[C@H](C)CC4)c23)c1` [Example 16.37, 5-{7-[(trans-4-methylcyclohexyl)methyl]-8-[(3S)-3-methylmorpholin-4-yl]-6-(3-methylphenyl)-7H-purin-2-yl} -1,3,4-oxadiazol-2(3H)-one], 1000 nM. Regarding `Cc1cccc(-c2nc3nc(C(=O)O)nc(NC(C)C(C)C)c3n2Cc2ccc(C(F)(F)F)cc2)c1` (stereo not shown) [Example 6.73, 6-[(1,2-dimethylpropyl)amino]-8-(3-methylphenyl)-7-[4-(trifluoromethyl)benzyl]-7H-purine-2-carboxylic acid], the IC50 (Table 6) turned out to be 437 nM. On to `Cc1nc(C(C)Nc2nc3nc(-c4noc(=O)[nH]4)nc(N[C@H](C)C4CCC4)c3n2C[C@H]2CC[C@H](C)CC2)cs1` (stereo partly drawn) [Example 11.86, 3-(6-{[(1R)-1-cyclobutylethyl]amino}-7-[(trans-4-methylcyclohexyl)methyl]-8-{[1-(2-methyl-1,3-thiazol-4-yl)ethyl]amino} -7H-purin-2-yl)-1,2,4-oxadiazol-5(2H)-one], for which, under “Table 11”, the IC50 worked out at 3.39 nM. With `C[C@@H](Nc1nc(C(=O)O)nc2nc(N3CCOC[C@H]3c3ccccc3)n(C[C@H]3CC[C@H](C)CC3)c12)C(F)(F)F` [Example 11.51, 7-[(trans-4-methylcyclohexyl)methyl]-8-[(3R)-3-phenylmorpholin-4-yl]-6-{[(1R)-2,2,2-trifluoro-1-methylethyl]amino}-7H-purine-2-carboxylic acid], the IC50 (Table 11) was determined as 2.26 nM. In the case of `Cc1cccc(-c2nc3nc(C(=O)O)nc(N[C@H](C)C4CCC4)c3n2C[C@H]2CC[C@H](C)CC2)c1` [Example 15.14, 6-{[(1R)-1-cyclobutylethyl]amino}-7-[(trans-4-methylcyclohexyl)methyl]-8-(3-methylphenyl)-7H-purine-2-carboxylic acid], the IC50 under setting [1] was determined as 2.91 nM.

As to `Cc1nonc1CN(C)c1nc2nc(-c3noc(=O)[nH]3)nc(N[C@H](C)C3CCC3)c2n1C[C@H]1CC[C@H](C)CC1` [Example 11.63, 3-(6-{[(1R)-1-cyclobutylethyl]amino}-7-[(trans-4-methylcyclohexyl)methyl]-8-{methyl[(4-methyl-1,2,5-oxadiazol-3-yl)methyl]amino}-7H-purin-2-yl)-1,2,4-oxadiazol-5(4H)-one], the IC50 (Table 11) was determined as 3.71 nM. `CCCN(CC)c1nc(C(=O)O)nc2nc(-c3cccc(C)c3)n(Cc3ccc(C(F)(F)F)cc3)c12` [Example 6.70, 6-[ethyl(propyl)amino]-8-(3-methylphenyl)-7-[4-(trifluoromethyl)benzyl]-7H-purine-2-carboxylic acid]: the inhibition at 1 µM (read-out: inh. at 1000 nM (FRET)) is 39%.

As for `Cc1cccc(-c2nc3nc(C(=O)O)nc(N[C@H](CCCN4CCN(C)CC4)C4CCC4)c3n2Cc2ccc(C(F)(F)F)cc2)c1` [Example 7.10, 6-{[(1R)-1-cyclobutyl-4-(4-methylpiperazin-1-yl)butyl]amino}-8-(3-methylphenyl)-7-[4-(trifluoromethyl)benzyl]-7H-purine-2-carboxylic acid], where the note is “Table 7”, the IC50 was found to be 94.3 nM. As to `COc1ccc(C2CCCCN2c2nc3nc(C(=O)O)nc(N[C@H](C)C4CCC4)c3n2Cc2ccc(C(F)(F)F)cc2)cc1` (stereo partly drawn) [Example 9.70, 6-{[(1R)-1-cyclobutylethyl]amino}-8-[2-(4-methoxyphenyl)piperidin-1-yl]-7-[4-(trifluoromethyl)benzyl]-7H-purine-2-carboxylic acid], the IC50 (Table 9) was determined as 9.29 nM. On to `C[C@@H](Nc1nc(C(C)(C)O)nc2nc(N3CCOC[C@H]3c3ccccc3)n(C[C@H]3CC[C@H](C)CC3)c12)C1CCC1` [Example 12.14, 2-(6-{[(1R)-1-cyclobutylethyl]amino}-7-[(trans-4-methylcyclohexyl)methyl]-8-[(3R)-3-phenylmorpholin-4-yl]-7H-purine-2-yl)propan-2-ol], for which the half-maximal inhibitory concentration (IC50) under setting [1] is 107 nM. On to `C[C@@H](Nc1nc(-c2n[nH]c(=O)o2)nc2nc(N3CCO[C@H](C)[C@@H]3C)n(C[C@H]3CC[C@H](C)CC3)c12)C1CCC1` (single isomer, unassigned) [Example 11.158], for which, under “Table 11”, the IC50 was found to be 12.9 nM.
